Data on four compounds can be found in patent publication US20050049294A1, “Methods of using [3.2.0] heterocyclic compounds and analogs thereof” (priority 2003, published 2005).

One data set relates to HT-29 cells. Put plainly: Cell growth inhibition (resazurin, 48 hours), HT-29. In kind it is cell-based. Conditions: Homo sapiens.
In data set [1] the test system is NF-κB-mediated luciferase activity in HEK293 NF-κB/Luc cells. As to the kind of experiment: NF-κB-mediated luciferase reporter gene assay. Particulars: for EC50: Homo sapiens; for luciferase activity upon TNF-α stimulation: pretreatment of NF-κB/Luc 293 cells. Format: cell-based, human. On the procedure: The HEK293 NF-κB/luciferase reporter cell line is a derivative of the human embryonic kidney cell line (ATCC; CRL- 1573) and carries a luciferase reporter gene under the regulation of 5×NF-κB binding sites. […] When performing the luciferase assay, the DMEM basal medium was replaced with phenol-red free DMEM basal medium and the G418 was omitted.
For NF-κB-mediated luciferase assays, HEK293 NF-κB/luciferase cells were seeded at 1.5×10^4 cells/well in 90 μl phenol-red free DMEM complete medium into Corning 3917 white opaque-bottom tissue culture plates. […] This dilution series was further diluted 40× in appropriate culture medium and ten μl aliquots were added to the test wells in triplicate resulting in final test concentrations ranging from 1 μM to 320 pM. […] For Formula II-19, a 127 μM starting dilution was made in 100% DMSO and the final test concentrations ranging from 317 nM to 0.1 nM. […] After 1 hr pretreatment, 10 μl of a 50 ng/ml TNF-α solution, prepared in the phenol-red free DMEM medium was added, and the plates were incubated for an additional 6 hr.
NF-κB inducible luciferase activity was measured at 6 hours.
The HEK293 NF-κB/luciferase reporter cell line is a derivative of the human embryonic kidney cell line (ATCC; CRL-1573) and carries a luciferase reporter gene under the regulation of 5×NF-κB binding sites. […] When performing the luciferase assay, the DMEM basal medium was replaced with phenol-red free DMEM basal medium and the G418 was omitted.
For NF-κB-mediated luciferase assays, HEK293 NF-κB/luciferase cells were seeded at 1.5×10^4 cells/well in 90 μl phenol-red free DMEM complete medium into Corning 3917 white opaque-bottom tissue culture plates. For Formula II-2, Formula II-4 and Formula II-5A, a 400 μM starting dilution was made in 100% DMSO and this dilution was used to generate a 8-point half log dilution series. This dilution series was further diluted 40× in appropriate culture medium and ten μl aliquots were added to the test wells in triplicate resulting in final test concentrations ranging from 1 μM to 320 pM. […] After 1 hr pretreatment, 10 μl of a 50 ng/ml TNF-α solution, prepared in the phenol-red free DMEM medium was added, and the plates were incubated for an additional 6 hr.
The relative luciferase units (RLU) were measured by using a Fusion microplate fluorometer (Packard Bioscience).

Data set [2] relates to LeTx-induced cytotoxicity of RAW264.7 cells. As to the kind of experiment: cells. Particulars: Mus musculus.
The test system of a further data set is RPMI 8226 cells. Put plainly: Cell growth inhibition (resazurin, 48 hours), RPMI 8226. In general terms: The colour change of resazurin is a common sign of viable cells or microbes.
In data set [3] the target is PGPH (caspase-like) activity of rabbit muscle 20S proteasomes (Oryctolagus cuniculus, UniProt A0A5F9DQW2). As to the kind of experiment: Inhibition of caspase-like (PGPH) activity of 20S proteasome (Z-LLE-AMC). Conditions: Table 3; mean EC50; purified rabbit 20S proteasomes. In kind it is biochemical. On the procedure:
A commercially available fluorogenic substrate specific for the PGPH activity was used instead of the chymotrypsin substrate supplied in the proteasome assay kit described above.
The substrate Z-LLE-AMC was prepared as a 20 mM stock solution in DMSO, stored at −20° C. The source of the proteasomes was the commercially available kit from Calbiochem (Cat. #539158). As with the chymotrypsin substrate, the proteasome can cleave Z-LLE-AMC into Z-LLE and free AMC. The activity can then be determined by measuring the fluorescence of the released AMC (λex=390 nm and λem=460 nm). The proteasomes were activated with SDS and held on ice as per manufacturer's recommendation. […] The series was diluted 20-fold with assay buffer and preincubated with the proteasomes as described for the chymotrypsin-like activity. After addition of substrate, the samples were incubated at 37° C., and release of the fluorescent AMC was monitored in a fluorimeter. All data were collected and plotted as the mean of triplicate points. […] As before, the model chosen was a sigmoidal dose-response, with a variable slope.

The next data set deals with PC-3 cells. Put plainly: Cell growth inhibition (resazurin, 48 hours), PC-3. In kind it is cell-based, human.
In another data set the test system is B16-F10 cells. Put plainly: Cell growth inhibition (resazurin, 48 hours), B16-F10. Format: cell-based, mouse.
The test system of data set [4] is 60 human tumor cell lines. As to the kind of experiment: NCI screen of 60 human tumor cell lines. In kind it is cell-based. Conditions: 48 h, read-out: mean GI50.
A further data set concerns PANC-1 cells. Put plainly: Cell growth inhibition (resazurin, 48 hours), PANC-1. Format: cell-based. Conditions: Table 2, PANC-1, human pancreatic carcinoma, read-out: EC50 (nM), mean ± SD.
Data set [5] relates to Caspase-3 activity in Jurkat cells. Put plainly: Caspase-3 activity assay in Jurkat cells. In kind it is cell-based, human. Particulars: EC50 concentration, 19 hours. Here is the method: Jurkat cells were plated at 2×10^6 cells/3 mL per well in a 6-well plate and incubated at 37° C., 5% (v/v) C02 and 95% (v/v) humidity. […] Bhalla, et al., Blood 82:3133 (1993). […] Cells treated with 0.25% DMSO served as the negative control. The cells were collected by centrifugation and the media removed. Cell pellets were processed for the Caspase-3 activity assay as described in the manufacturer's protocol (EnzChek Caspase-3 Assay Kit from Molecular Probes (E-13183; see Appendix G, which form a part of this application and is also available at hypertext transfer protocol on the worldwide web at “probes.com/media/pis/mp13183.pdf.”. In brief, cell pellets were lysed on ice, mixed with the EnzChek Caspase-3 components in a 96-well plate, and then incubated in the dark for 30 minutes prior to reading fluorescence of cleaved benzyloxycarbonyl-DEVD-AMC using a Packard Fusion with λex=485 nm and λem=530 nm filters. Protein concentrations for lysates were determined using the BCA Protein Assay Kit (Pierce) and these values were used for normalization.

A short description of data set [6]: Maximum Tolerated Dose (MTD) determination. In kind it is in vivo, BALB/c mice. An excerpt: In vivo studies were designed to determine the MTD of Salinosporamide A when administered intravenously to female BALB/c mice.
Animals were observed daily for clinical signs and were weighed individually twice weekly until the end of the experiment (maximum of 14 days after the last day of dosing).

The mark [7] stands for this setting: RAW264.7, read-out: EC50 (nM), inhibition of RAW 264.7 cell cytotoxicity mediated by anthrax lethal toxin.
The mark [8] stands for this setting: Homo sapiens, RPMI-8226, Table 13, RPMI 8226.
[9] abbreviates: Homo sapiens, RPMI-8226, read-out: RPMI 8226 EC50 (nM), Table 15, mean EC50.
Setting [10] is: Mus musculus, B16-F10, Table 13, B16-F10.

“And” between values parts separate entries of the source, which are not always exact repeats. Equal values may be shown once. Read-outs that look alike come from different tables or passages of the source.

Chain of PGPH (caspase-like) activity of rabbit muscle 20S proteasomes (A0A5F9DQW2 1-212): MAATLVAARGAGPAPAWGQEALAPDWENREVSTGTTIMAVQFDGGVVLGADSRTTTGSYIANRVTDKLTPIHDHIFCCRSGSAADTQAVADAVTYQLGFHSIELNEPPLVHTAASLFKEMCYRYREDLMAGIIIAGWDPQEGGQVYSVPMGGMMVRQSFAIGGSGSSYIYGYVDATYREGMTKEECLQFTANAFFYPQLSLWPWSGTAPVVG

Turning to `C[C@@]12OC(=O)[C@]1([C@@H](O)C1CCCCC1)NC(=O)[C@@H]2CCCl` [Formula II-2], the EC50 with HT-29 cells (HT-29) is 129 ± 21 nM; in data set [1] (HEK293, representative experiment, Example 43 (FIG. 44, 45), read-out: calculated EC50 to inhibit NF-κB inducible luciferase activity), 73 nM; in data set [2] (setting [7]), 14 nM; in the data set with RPMI 8226 cells (setting [8]), 49 nM; in the data set with RPMI 8226 cells (setting [9]), 47 nM; in the data set on RPMI 8226 cells (Table 13, RPMI 8226), 45 nM. The EC50 was found to be 1500 nM in data set [3]; 284 ± 110 nM with PC-3 cells (Homo sapiens, Table 13, PC-3, read-out: EC50); 194 nM with B16-F10 cells (setting [10]). Further, the “luciferase activity upon TNF-α stimulation” value in [1] was “dose-dependent decrease”.
Turning to `C[C@@]12OC(=O)[C@]1([C@@H](O)C1CCCCC1)NC(=O)[C@@H]2CCBr` [Formula II-4], the EC50 with HT-29 cells (Table 13, HT-29, read-out: EC50) is 132 ± 36 nM; in data set [1] (HEK293, read-out: calculated EC50 to inhibit NF-κB inducible luciferase activity) it was 67 nM; in data set [2] (setting [7]) it was 14 nM; in the data set with RPMI 8226 cells (setting [8]), 57 nM; with RPMI 8226 cells (setting [9]) it was 54 nM; in the data set with PC-3 cells (Homo sapiens, PC-3) it was 204 ± 49 nM. The EC50 was 163 nM with B16-F10 cells (setting [10]) and 175 nM in the data set with B16-F10 cells (Table 13, B16-F10). Moreover, the “luciferase activity upon TNF-α stimulation” value in [1] is recorded as “dose-dependent decrease”.
As to `C[C@@]12OC(=O)[C@]1([C@@H](O)[C@@H]1C=CCCC1)NC(=O)[C@@H]2CCCl` [Formula II-16, Salinosporamide A], the GI50 (as a rule, the concentration giving 50% growth inhibition) in [4] is < 10 nM. For the same compound, the EC50 was 47 nM in the data set on HT-29 cells (HT-29, 48 h); 40 ± 26 nM in the data set with HT-29 cells (HT-29, 48 h, read-out: EC50 (nM), mean ± SD); ~7 nM in [1] (HEK293, 6 h, read-out: calculated EC50 for inhibition of NF-κB/luciferase activity); 60 nM in the data set with PANC-1 cells; < 4 nM in [2] (RAW264.7, read-out: average EC50, viability of LeTx-treated cells); 8.6 ± 1.9 nM with RPMI 8226 cells (Homo sapiens, RPMI-8226, 48 h, read-out: EC50 (nM), mean ± SD). The EC50 in the data set with RPMI 8226 cells (Homo sapiens, RPMI-8226, read-out: EC50 (nM), mean ± SD) came to 10 ± 3 nM; in the data set with PC-3 cells (Homo sapiens, PC-3, 48 h, PC3, 48h, panel of b226), 78 nM; in the data set on PC-3 cells (Homo sapiens, PC-3, 48 h, read-out: EC50 (nM), mean ± SD, Table 2, PC-3, human prostate adenocarcinoma, 48 hours), 64 ± 26 nM; in the data set with PC-3 cells (Homo sapiens, PC-3, Table 6, PC-3 (n = 2)), 31 nM; in the data set on PC-3 cells (Table 6, PC-3 (n = 2)), 25 nM; with B16-F10 cells (Mus musculus, B16-F10, 48 h), 33 nM. For the same compound, the EC50 in the data set on B16-F10 cells (Mus musculus, B16-F10, 48 h, read-out: EC50 (nM), mean ± SD) stood at 47 ± 20 nM. Besides, the “luciferase activity upon TNF-α stimulation” value in data set [1] was “dose-dependent decrease”. Further, the Caspase-3 activity result in [5] was “activation of Caspase-3”. The “% cytotoxicity, mean ± SD” value in the data set with RPMI 8226 cells (Table 6, RPMI 8226 (n = 5)) was determined as 94 ± 1%; in the data set on RPMI 8226 cells (Table 9, RPMI 8226, 48 hour), 94 ± 0%. For the same compound, the “% cytotoxicity” value in the data set with PC-3 cells (Table 6, PC-3 (n = 2)) is 88% and 89%. For the same compound, the “behavioral changes during the course of the experiment” value in data set [6] (0.01 to 0.5 mg/kg i.v.) is reported as “No behavioral changes were noted”. In addition, the “dose well tolerated when administered daily for five consecutive days” value in data set [6] (i.v., qdx5, female BALB/c mice) was “up to 0.1 mg/kg”. The “single intravenous dose tolerated” value in [6] (i.v., single dose (qdx1), female BALB/c mice) is reported as “up to 0.25 mg/kg”.
For `C[C@@]12OC(=O)[C@]1([C@@H](O)[C@@H]1C=CCCC1)NC(=O)[C@@H]2CCBr` [Formula II-18], the EC50 in the data set on HT-29 cells (HT-29) is 18 ± 7.8 nM; in data set [2] (setting [7]), 4 nM; in the data set with RPMI 8226 cells (Homo sapiens, RPMI-8226, 48 h, read-out: EC50, μM (mean ± SD), Table 9, RPMI 8226, 48 hour), 17 nM; with RPMI 8226 cells (setting [8]), 6.3 nM; in the data set on RPMI 8226 cells (setting [9]), 6.3 nM; in the data set with RPMI 8226 cells (read-out: EC50, μM (mean ± SD), Table 9, RPMI 8226, 48 hour) it was 22 nM. Also, the EC50 turned out to be 250 nM in data set [3]; 35 ± 5.6 nM with PC-3 cells (Homo sapiens, PC-3); 19 nM in the data set with B16-F10 cells (setting [10]); 36 nM in the data set on B16-F10 cells (Table 13, B16-F10). For the same compound, in data set [1], the “luciferase activity upon TNF-α stimulation” value is “dose-dependent decrease”. The “% cytotoxicity, mean ± SD” value with RPMI 8226 cells (Table 9, RPMI 8226, 48 hour) is listed as 94, 94%.
